Legend:
Pseudomonas aeruginosa = assay: microtitre plate test on sterile agar, growth inhibition of gram-negative bacteria; format: cell-based; conditions: gramnegativen Bakterien (z.B. Pseudomonas aeruginosa); Inkubationszeit 3 Tage, Temperatur 37°C
Experimental: (§1) Sowohl gegenüber gramnegativen Bakterien (z.B. Pseudomonas aeruginosa) als auch grampositiven Bakterien (z.B. Staphylococcus aureus) zeigen die beispielhaft genannten Borate eine hervorragende wachstumshemmende Wirkung, was experimentell durch einen sogenannten Mikrotiterplattentest auf sterilem Agar (Inkubationszeit 3 Tage, Temperatur 37°C) dokumentiert werden konnte.

Staphylococcus aureus = assay: microtitre plate test on sterile agar, growth inhibition of gram-positive bacteria; format: cell-based; conditions: grampositiven Bakterien (z.B. Staphylococcus aureus); Inkubationszeit 3 Tage, Temperatur 37°C
Experimental: as §1

| SMILES | wachstumshemmende Wirkung (Pseudomonas aeruginosa) | wachstumshemmende Wirkung (Staphylococcus aureus) |
| --- | --- | --- |
| CC(C)=CCC/C(C)=C/COB(OC/C=C(\C)CCC=C(C)C)OC/C=C(\C)CCC=C(C)C [tris-Geranylborat] | antimikrobiellen Eigenschaften | antimikrobiellen Eigenschaften |
| CC/C=C\CCOB(OCC/C=C\CC)OCC/C=C\CC [tris-(cis)-3-Hexenylborat] | antimikrobiellen Eigenschaften | antimikrobiellen Eigenschaften |
| c1ccc(CCOB(OCCc2ccccc2)OCCc2ccccc2)cc1 [tris-Phenylethylborat] | antimikrobiellen Eigenschaften | antimikrobiellen Eigenschaften |
| CC(C)=CCC/C(C)=C\COB(OC/C=C(/C)CCC=C(C)C)OC/C=C(/C)CCC=C(C)C [tris-Nerylborat] | antimikrobiellen Eigenschaften | antimikrobiellen Eigenschaften |
| CC(CC=O)CCCC(C)(C)OB(OC(C)(C)CCCC(C)CC=O)OC(C)(C)CCCC(C)CC=O (centres unmarked) [tris-Hydroxycitronellalborat] | antimikrobiellen Eigenschaften | antimikrobiellen Eigenschaften |
| C=CC(C)(CCC=C(C)C)OB(OC(C)(C=C)CCC=C(C)C)OC(C)(C=C)CCC=C(C)C (centres unmarked) [tris-Linalylborat] | antimikrobiellen Eigenschaften | antimikrobiellen Eigenschaften |
| C=CCCCCCCCCCOB(OCCCCCCCCCC=C)OCCCCCCCCCC=C [tris-Undecenylborat] | antimikrobiellen Eigenschaften | antimikrobiellen Eigenschaften |
